Experimental data reported in ChEMBL document CHEMBL3991601, “The target landscape of clinical kinase drugs” (Science, 2017).
The source made the active and inactive calls. Rule as the data show it, for most assays here: actives have a measured Kd and inactives only a lower limit.

Experiments:
[1] = target: RAC-gamma serine/threonine-protein kinase (Homo sapiens, UniProt Q9Y243)
[2] = target: Cyclin-dependent kinase 12 (Homo sapiens, UniProt Q9NYV4)
Ephrin type-A receptor 7 = Ephrin type-A receptor 7 (Homo sapiens, UniProt Q15375)
Chain of Ephrin type-A receptor 7 (Q15375 whole entry): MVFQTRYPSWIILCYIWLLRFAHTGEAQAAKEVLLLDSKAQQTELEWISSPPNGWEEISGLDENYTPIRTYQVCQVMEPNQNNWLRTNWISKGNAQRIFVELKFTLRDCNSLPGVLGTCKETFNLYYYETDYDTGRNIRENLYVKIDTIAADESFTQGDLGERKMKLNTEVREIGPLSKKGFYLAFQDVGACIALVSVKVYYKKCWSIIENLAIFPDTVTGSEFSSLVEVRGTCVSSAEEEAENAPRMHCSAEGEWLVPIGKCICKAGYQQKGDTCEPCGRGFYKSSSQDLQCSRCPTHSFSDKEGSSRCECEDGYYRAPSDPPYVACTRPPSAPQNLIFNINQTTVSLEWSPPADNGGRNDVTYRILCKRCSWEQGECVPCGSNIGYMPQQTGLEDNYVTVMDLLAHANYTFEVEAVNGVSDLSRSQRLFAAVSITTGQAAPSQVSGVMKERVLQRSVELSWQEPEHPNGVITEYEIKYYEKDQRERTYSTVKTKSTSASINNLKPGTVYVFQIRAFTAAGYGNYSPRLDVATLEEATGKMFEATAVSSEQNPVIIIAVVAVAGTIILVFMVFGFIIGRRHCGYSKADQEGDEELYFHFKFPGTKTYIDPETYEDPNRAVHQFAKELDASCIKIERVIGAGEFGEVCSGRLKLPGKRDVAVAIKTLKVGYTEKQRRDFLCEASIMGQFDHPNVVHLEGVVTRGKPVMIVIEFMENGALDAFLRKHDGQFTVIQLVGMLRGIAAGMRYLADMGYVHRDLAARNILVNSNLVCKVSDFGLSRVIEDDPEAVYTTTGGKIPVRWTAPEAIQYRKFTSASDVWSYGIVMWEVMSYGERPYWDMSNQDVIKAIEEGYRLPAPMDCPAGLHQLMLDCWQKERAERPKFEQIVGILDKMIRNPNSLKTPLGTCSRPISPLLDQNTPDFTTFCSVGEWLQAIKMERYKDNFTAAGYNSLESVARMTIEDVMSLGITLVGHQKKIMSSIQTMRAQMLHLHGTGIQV

[3] = target: Tyrosine-protein kinase Yes (Homo sapiens, UniProt P07947)
Chain of Tyrosine-protein kinase Yes (P07947 whole entry): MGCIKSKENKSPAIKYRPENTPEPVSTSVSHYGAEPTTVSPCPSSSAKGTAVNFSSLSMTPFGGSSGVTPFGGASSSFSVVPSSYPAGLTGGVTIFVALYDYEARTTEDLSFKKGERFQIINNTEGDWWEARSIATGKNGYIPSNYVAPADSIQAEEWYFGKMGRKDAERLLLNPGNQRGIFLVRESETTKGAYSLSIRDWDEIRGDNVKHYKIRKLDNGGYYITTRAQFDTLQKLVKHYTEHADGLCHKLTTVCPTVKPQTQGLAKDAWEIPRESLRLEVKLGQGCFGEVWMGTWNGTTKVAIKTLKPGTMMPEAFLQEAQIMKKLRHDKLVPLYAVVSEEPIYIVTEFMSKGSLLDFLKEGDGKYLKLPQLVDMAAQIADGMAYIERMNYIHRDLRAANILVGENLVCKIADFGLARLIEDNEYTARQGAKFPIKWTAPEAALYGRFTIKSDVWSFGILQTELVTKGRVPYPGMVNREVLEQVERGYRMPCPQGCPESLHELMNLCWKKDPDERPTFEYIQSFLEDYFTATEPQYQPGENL

[4] = target: TRAF2 and NCK-interacting protein kinase (Homo sapiens, UniProt Q9UKE5)
[5] = target: Casein kinase I isoform delta (Homo sapiens, UniProt P48730)
Chain of Casein kinase I isoform delta (P48730 whole entry, canonical isoform): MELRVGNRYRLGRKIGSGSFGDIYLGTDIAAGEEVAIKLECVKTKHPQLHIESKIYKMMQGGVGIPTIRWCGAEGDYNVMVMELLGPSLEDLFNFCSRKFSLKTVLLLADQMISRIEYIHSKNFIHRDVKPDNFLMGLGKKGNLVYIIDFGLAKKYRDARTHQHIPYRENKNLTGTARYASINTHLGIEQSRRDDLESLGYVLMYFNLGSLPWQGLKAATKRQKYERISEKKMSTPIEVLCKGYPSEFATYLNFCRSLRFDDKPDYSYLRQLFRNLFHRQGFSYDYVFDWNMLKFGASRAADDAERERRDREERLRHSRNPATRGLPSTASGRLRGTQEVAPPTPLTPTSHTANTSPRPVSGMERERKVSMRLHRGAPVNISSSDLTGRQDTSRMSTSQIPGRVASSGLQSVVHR

[6] = target: Inosine-5'-monophosphate dehydrogenase 2 (Homo sapiens, UniProt P12268)
[7] = target: T1, Delta(24)-sterol reductase (Homo sapiens, UniProt Q15392)
T1 sequence (Q15392 whole entry): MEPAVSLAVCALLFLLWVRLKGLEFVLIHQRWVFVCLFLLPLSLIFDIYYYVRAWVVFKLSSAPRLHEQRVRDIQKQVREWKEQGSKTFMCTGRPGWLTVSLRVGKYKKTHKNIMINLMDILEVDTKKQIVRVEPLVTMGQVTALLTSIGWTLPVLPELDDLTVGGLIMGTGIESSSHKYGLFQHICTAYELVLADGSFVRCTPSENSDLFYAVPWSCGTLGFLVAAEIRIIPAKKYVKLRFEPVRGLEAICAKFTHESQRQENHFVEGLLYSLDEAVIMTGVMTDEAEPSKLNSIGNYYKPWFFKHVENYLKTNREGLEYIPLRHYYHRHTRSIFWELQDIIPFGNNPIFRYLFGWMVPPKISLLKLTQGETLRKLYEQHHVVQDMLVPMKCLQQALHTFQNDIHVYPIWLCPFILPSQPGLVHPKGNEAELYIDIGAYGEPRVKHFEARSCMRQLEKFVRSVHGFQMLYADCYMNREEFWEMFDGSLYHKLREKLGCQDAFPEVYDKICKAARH

[8] = target: Citron Rho-interacting kinase (Homo sapiens, UniProt O14578)
[9] = target: T2, Serine/threonine-protein kinase Nek9 (Homo sapiens, UniProt Q8TD19)
T2 sequence (Q8TD19 whole entry): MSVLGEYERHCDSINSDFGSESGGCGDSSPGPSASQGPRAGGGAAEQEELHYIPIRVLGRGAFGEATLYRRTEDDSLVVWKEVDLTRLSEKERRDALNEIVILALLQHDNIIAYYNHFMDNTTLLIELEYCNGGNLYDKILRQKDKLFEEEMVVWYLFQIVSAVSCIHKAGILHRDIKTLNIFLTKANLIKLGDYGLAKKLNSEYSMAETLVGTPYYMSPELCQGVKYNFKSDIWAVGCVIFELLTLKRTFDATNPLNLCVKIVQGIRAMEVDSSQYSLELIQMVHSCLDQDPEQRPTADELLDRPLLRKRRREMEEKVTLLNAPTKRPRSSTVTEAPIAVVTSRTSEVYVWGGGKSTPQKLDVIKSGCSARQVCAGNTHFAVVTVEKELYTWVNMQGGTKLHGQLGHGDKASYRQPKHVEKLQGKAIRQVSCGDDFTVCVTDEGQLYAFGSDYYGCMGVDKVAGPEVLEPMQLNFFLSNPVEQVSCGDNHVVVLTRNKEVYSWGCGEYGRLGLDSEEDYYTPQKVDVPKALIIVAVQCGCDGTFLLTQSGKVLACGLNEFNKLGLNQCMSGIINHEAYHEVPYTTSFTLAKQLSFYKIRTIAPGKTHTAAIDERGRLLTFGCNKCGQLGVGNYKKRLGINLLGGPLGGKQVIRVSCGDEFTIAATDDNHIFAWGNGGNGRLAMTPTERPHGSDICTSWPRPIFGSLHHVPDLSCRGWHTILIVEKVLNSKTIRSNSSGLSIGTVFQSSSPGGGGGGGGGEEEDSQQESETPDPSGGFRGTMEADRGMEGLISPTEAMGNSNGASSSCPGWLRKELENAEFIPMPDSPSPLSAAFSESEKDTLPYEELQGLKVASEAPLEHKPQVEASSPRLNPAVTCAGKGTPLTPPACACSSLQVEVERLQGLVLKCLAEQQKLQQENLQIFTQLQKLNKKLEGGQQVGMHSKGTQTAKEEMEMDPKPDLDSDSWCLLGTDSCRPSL

[10] = target: Serine/threonine-protein kinase B-raf (Homo sapiens, UniProt P15056)
Chain of Serine/threonine-protein kinase B-raf (P15056 whole entry): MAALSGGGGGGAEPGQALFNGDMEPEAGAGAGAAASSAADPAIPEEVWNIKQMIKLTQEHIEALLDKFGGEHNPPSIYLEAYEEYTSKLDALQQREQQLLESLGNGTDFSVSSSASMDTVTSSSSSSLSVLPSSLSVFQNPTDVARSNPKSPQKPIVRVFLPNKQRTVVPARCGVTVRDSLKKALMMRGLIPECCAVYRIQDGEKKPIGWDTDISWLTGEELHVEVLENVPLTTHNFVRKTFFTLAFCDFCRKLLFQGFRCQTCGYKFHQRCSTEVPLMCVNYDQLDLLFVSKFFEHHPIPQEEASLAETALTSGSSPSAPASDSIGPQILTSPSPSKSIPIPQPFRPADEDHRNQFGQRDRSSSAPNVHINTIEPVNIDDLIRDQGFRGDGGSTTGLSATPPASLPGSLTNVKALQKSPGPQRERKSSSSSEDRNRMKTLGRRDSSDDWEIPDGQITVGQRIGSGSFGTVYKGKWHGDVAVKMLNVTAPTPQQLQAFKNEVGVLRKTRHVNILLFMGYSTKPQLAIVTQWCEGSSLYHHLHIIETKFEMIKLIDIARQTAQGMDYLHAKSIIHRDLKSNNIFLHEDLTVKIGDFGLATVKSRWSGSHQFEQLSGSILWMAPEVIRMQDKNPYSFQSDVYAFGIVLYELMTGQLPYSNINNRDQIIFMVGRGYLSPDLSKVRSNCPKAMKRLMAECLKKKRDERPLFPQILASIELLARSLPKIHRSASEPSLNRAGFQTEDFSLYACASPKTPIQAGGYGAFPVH

[11] = target: T3, Serine/threonine-protein kinase D3 (Homo sapiens, UniProt O94806)
T3 sequence (O94806 whole entry): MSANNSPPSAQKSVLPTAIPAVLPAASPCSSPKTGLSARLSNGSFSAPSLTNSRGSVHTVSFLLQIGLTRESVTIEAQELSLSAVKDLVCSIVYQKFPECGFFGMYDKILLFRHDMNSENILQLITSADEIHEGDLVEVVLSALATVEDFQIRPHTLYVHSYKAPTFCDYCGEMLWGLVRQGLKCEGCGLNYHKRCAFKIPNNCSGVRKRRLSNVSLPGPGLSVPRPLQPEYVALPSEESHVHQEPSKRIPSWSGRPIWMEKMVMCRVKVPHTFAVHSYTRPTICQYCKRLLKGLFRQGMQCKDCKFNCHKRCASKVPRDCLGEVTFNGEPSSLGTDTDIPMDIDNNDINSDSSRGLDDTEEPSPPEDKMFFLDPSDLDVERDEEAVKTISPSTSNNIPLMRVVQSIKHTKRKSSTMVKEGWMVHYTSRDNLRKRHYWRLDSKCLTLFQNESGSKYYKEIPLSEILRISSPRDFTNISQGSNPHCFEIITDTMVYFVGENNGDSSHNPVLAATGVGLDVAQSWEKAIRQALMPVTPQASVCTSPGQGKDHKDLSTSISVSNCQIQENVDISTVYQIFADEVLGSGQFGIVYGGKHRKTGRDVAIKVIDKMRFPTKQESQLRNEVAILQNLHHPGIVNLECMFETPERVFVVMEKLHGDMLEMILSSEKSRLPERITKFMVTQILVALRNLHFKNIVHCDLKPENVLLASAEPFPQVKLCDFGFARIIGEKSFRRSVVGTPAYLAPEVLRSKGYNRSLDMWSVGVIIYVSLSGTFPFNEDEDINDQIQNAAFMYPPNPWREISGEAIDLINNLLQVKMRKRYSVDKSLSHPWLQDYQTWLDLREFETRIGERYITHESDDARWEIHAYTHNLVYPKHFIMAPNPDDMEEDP

[12] = target: MAP/microtubule affinity-regulating kinase 3 (Homo sapiens, UniProt P27448)
Chain of MAP/microtubule affinity-regulating kinase 3 (P27448 whole entry): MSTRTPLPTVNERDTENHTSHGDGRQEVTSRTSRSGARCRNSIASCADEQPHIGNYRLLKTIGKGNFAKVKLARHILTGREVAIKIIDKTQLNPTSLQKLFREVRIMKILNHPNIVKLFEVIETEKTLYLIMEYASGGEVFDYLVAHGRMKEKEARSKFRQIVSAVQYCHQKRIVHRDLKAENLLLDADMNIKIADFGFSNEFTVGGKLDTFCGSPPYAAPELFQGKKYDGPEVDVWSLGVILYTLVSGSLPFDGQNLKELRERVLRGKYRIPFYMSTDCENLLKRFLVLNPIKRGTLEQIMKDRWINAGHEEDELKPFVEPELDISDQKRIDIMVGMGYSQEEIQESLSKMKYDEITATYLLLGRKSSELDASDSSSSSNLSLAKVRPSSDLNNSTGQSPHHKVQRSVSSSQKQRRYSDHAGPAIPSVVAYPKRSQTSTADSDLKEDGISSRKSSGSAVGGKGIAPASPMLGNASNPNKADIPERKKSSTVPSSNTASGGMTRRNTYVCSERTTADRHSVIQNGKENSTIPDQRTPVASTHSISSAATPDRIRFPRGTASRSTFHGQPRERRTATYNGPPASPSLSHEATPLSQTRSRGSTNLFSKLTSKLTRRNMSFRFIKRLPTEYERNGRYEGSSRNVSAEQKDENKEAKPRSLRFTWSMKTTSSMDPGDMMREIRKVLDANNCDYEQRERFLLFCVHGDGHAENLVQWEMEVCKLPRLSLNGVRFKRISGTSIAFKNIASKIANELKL

[13] = target: GTP-binding nuclear protein Ran (Homo sapiens, UniProt P62826)
Also: in the data inactive means no Kd found up to 30 µM.

Chain of Cyclin-dependent kinase 12 (Q9NYV4 whole entry): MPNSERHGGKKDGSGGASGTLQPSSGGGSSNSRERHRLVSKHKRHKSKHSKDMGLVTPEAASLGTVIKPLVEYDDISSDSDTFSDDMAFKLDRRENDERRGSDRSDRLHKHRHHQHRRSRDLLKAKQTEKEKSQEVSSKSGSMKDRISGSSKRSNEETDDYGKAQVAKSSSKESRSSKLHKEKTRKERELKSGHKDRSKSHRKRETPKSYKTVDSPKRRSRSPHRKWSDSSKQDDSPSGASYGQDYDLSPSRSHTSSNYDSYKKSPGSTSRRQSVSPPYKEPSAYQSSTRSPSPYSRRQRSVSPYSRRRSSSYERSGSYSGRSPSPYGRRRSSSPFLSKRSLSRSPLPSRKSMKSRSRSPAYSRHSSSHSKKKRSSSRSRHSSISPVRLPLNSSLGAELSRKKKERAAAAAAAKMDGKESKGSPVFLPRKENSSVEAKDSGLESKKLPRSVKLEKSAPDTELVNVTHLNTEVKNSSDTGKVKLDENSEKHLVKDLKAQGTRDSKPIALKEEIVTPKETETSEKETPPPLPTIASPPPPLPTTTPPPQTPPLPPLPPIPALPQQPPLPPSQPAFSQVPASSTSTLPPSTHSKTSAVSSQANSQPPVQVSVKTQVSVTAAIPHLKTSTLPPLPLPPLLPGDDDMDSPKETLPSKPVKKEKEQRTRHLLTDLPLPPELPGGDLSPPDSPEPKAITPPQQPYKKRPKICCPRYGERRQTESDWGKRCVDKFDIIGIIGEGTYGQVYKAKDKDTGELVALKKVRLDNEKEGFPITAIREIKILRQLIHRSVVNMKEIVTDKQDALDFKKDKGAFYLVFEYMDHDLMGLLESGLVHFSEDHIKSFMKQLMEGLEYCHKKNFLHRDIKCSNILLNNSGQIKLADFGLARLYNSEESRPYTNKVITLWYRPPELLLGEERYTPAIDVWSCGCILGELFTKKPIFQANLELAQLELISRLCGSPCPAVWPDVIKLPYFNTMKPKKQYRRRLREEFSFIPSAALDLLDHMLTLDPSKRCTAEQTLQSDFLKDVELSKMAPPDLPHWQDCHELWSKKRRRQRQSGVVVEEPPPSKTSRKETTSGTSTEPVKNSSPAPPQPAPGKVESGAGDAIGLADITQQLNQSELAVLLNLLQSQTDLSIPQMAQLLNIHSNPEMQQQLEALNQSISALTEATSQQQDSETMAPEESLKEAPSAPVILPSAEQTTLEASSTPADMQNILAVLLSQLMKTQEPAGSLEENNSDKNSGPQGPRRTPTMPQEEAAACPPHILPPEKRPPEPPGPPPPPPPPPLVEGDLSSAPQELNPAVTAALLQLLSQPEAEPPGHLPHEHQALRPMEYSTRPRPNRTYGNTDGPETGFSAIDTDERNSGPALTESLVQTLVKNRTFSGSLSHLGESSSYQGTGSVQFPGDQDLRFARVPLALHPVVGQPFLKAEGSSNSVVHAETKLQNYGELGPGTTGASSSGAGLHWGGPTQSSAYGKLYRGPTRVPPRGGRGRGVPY

Compound | Kd [1] | Kd [2] | Kd (Ephrin type-A receptor 7) | Kd [3] | Kd [4] | Kd [5] | Kd [6] | Kd [7] | Kd [8] | Kd [9] | Kd [10] | Kd [11] | Kd [12] | Kd [13]
COc1cc2nccc(Oc3ccc(NC(=O)C4(C(=O)Nc5ccc(F)cc5)CC4)cc3)c2cc1OC [CABOZANTINIB] | > 30 µM (inactive) | > 30 µM (inactive) | > 30 µM (inactive) | > 30 µM (inactive) | > 30 µM (inactive) | > 30 µM (inactive) | > 30 µM (inactive) | > 30 µM (inactive) | > 30 µM (inactive) | > 30 µM (inactive) | > 30 µM (inactive) | > 30 µM (inactive) | > 30 µM (inactive) | > 30 µM (inactive)
O=C(Nc1ccc(OC(F)(F)F)cc1)c1sccc1NCc1ccnc2ccccc12 [OSI-930] | > 30 µM (inactive) | > 30 µM (inactive) | > 30 µM (inactive) | > 30 µM (inactive) | > 30 µM (inactive) | > 30 µM (inactive) | > 30 µM (inactive) | > 30 µM (inactive) | > 30 µM (inactive) | > 30 µM (inactive) | > 30 µM (inactive) | > 30 µM (inactive) | > 30 µM (inactive) | > 30 µM (inactive)
Cc1cc(Nc2nc(N[C@@H](C)c3ncc(F)cn3)ncc2Cl)n[nH]1 [AZD-1480] | > 30 µM (inactive) | > 30 µM (inactive) | > 30 µM (inactive) | > 30 µM (inactive) | > 30 µM (inactive) | > 30 µM (inactive) | > 30 µM (inactive) | > 30 µM (inactive) | > 30 µM (inactive) | > 30 µM (inactive) | > 30 µM (inactive) | > 30 µM (inactive) | > 30 µM (inactive) | > 30 µM (inactive)
COc1cccc(Nc2ncnn3ccc(CN4CC[C@@H](N)[C@H](O)C4)c23)c1 [BMS-690514] | > 30 µM (inactive) | > 30 µM (inactive) | > 30 µM (inactive) | 1.03 µM (active) | > 30 µM (inactive) | > 30 µM (inactive) | > 30 µM (inactive) | > 30 µM (inactive) |  | > 30 µM (inactive) | > 30 µM (inactive) | 0.493 µM (active) | 1.7 µM (active) | > 30 µM (inactive)
CCc1cc2c(cc1N1CCC(N3CCOCC3)CC1)C(C)(C)c1[nH]c3cc(C#N)ccc3c1C2=O [ALECTINIB] | > 30 µM (inactive) | > 30 µM (inactive) | > 30 µM (inactive) | > 30 µM (inactive) | > 30 µM (inactive) | > 30 µM (inactive) | > 30 µM (inactive) | > 30 µM (inactive) | > 30 µM (inactive) | > 30 µM (inactive) | > 30 µM (inactive) | > 30 µM (inactive) | > 30 µM (inactive) | > 30 µM (inactive)
CNC(=O)c1cccc(-c2ccc3c(N4CCOC[C@@H]4C)nc(N4CCOC[C@@H]4C)nc3n2)c1 [VISTUSERTIB] | > 30 µM (inactive) | > 30 µM (inactive) | > 30 µM (inactive) | > 30 µM (inactive) | > 30 µM (inactive) | > 30 µM (inactive) | > 30 µM (inactive) | > 30 µM (inactive) | > 30 µM (inactive) | > 30 µM (inactive) | > 30 µM (inactive) | > 30 µM (inactive) | > 30 µM (inactive) | > 30 µM (inactive)
Cn1c(=O)c(F)c(Nc2ccc(I)cc2F)c2c(=O)n(C[C@@H](O)CO)cnc21 [TAK-733] | > 30 µM (inactive) | > 30 µM (inactive) | > 30 µM (inactive) | > 30 µM (inactive) | > 30 µM (inactive) | > 30 µM (inactive) | > 30 µM (inactive) | > 30 µM (inactive) | > 30 µM (inactive) | > 30 µM (inactive) | > 30 µM (inactive) | > 30 µM (inactive) | > 30 µM (inactive) | > 30 µM (inactive)
CC[C@@](C)(Nc1ccnc(-c2c[nH]c3ncccc23)n1)C(=O)NCC(F)(F)F [DECERNOTINIB] | > 30 µM (inactive) | > 30 µM (inactive) | > 30 µM (inactive) | > 30 µM (inactive) | > 30 µM (inactive) | > 30 µM (inactive) | > 30 µM (inactive) | > 30 µM (inactive) | > 30 µM (inactive) | > 30 µM (inactive) | > 30 µM (inactive) | > 30 µM (inactive) | 0.562 µM (active) | > 30 µM (inactive)
COc1cc(F)c(F)c(Nc2ccc(I)cc2F)c1NS(=O)(=O)C1(C[C@H](O)CO)CC1 [REFAMETINIB] | > 30 µM (inactive) | > 30 µM (inactive) | > 30 µM (inactive) | > 30 µM (inactive) | > 30 µM (inactive) | > 30 µM (inactive) | > 30 µM (inactive) |  | > 30 µM (inactive) | > 30 µM (inactive) | > 30 µM (inactive) | > 30 µM (inactive) | > 30 µM (inactive) | > 30 µM (inactive)
CN1CCN(c2nc(C3=C(c4c[nH]c5ccccc45)C(=O)NC3=O)c3ccccc3n2)CC1 [SOTRASTAURIN] | > 30 µM (inactive) | > 30 µM (inactive) | > 30 µM (inactive) | > 30 µM (inactive) | 0.038 µM | > 30 µM (inactive) |  | > 30 µM (inactive) | > 30 µM (inactive) | > 30 µM (inactive) | > 30 µM (inactive) | > 30 µM (inactive) | > 30 µM (inactive) | > 30 µM (inactive)
